Laboratory results: publication PMC8318231, “Rate-of-Kill (RoK) assays to triage large compound sets for Chagas disease drug discovery: Application to GSK Chagas Box” (PLoS Neglected Tropical Diseases, 2021)

Assays:
[1] = tested on: T. cruzi Tulahuen trypomastigotes; test: T. cruzi trypomastigote assay (Cell Titer-Glo viability, ATP luminescence); type: cell-based, Trypanosoma cruzi; conditions: for Trypomastigotes pIC50 48 hours: 48 hours incubation; for Trypomastigotes pIC50 48 hours / Trypomastigotes pIC50 72 hours: pIC50 = -log10 IC50 in molar units; for Trypomastigotes pIC50 72 hours: 72 hours incubation; for 72 pIC50 (trypomastigotes, raw data of Fig 1D): 72 hours, plotted values, censored values given without sign; for 48 pIC50 / 72 pIC50: trypomastigote assay; for 48 pIC50: 48 h; for 72 pIC50: 72 h
In short: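 Tulahuen trypomastigotes from infected LLC-MK2 culture supernatants (days 5–8) plated at 5 × 10^4 per well in DMEM/2% FBS with compound at 5 μM single-shot final or in dose response. Viability by CellTiter-Glo ATP luminescence after 10 min at room temperature, normalised to no-cell (100%) and DMSO (0%) controls.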

TcCYP51 = conditions: formerly reported; cited from earlier work
[2] = tested on: T. cruzi intracellular amastigotes in H9c2 cells; test: Rate-of-Kill (RoK) high-content imaging assay, amastigotes per cell (AM/CELL) and curve descriptors; type: cell-based, Trypanosoma cruzi; design: key to ME_24h / ME_48h / ME_72h: % reduction in parasite burden (cidal response); t50pct_MCC50 / t50pct_Cmax: unit not given here; conditions: for ME_24h: 24h; for ME_48h: 48h; for ME_72h: 72h; for tlag_Cmax / t50pct_Cmax / t50%_Cmax: at Cmax; for ME_24h (%): maximum effect at 24 h; for ME_24h (%) / ME_48h (%) / ME_72h (%): RoK assay; for ME_48h (%): maximum effect at 48 h; for ME_72h (%): maximum effect at 72 h; for ME 24h (maximum effect at 24 hours, intracellular amastigotes): maximum percentage of parasite burden reduction reached by any concentration
Method: For this high-content intracellular imaging assay, H9c2 cells were seeded in 225 cm^2 T- FLASK in DMEM with 10% FBS for 4 h to allow attachment. T. cruzi trypomastigotes, collected at days 5 to 8 after infection from LLC-MK2 parasite infected cultures, were allowed to swim out for 4 h at 37°C from a centrifuged pellet (1,600 x g / 10 min). Trypomastigotes were then collected and counted in a CASY Cell Counter using the 60 μm capillary. Trypomastigotes, in supplemented DMEM, were added to H9c2 cultures in a multiplicity of infection (MOI) of 8 and incubated for 18 h. Cells were washed once with PBS before incubation of the infected H9c2 monolayer with trypsin (Life-Technologies) to detach cells from the flask. Cells were counted in a CASY Cell Counter, using the 150 μm capillary, and their density set at 5 x 10^4 cells/mL in supplemented DMEM. Infected H9c2 were dispensed into 384-well plates at 50 μL per well using a Multidrop Combi dispenser. Control wells used to determine a 100% parasitic growth (full 6th column of each plate) were left untreated, whereas not infected cells were added in the control wells used as 0% parasite growth (or 100% parasite growth inhibition; full 18th column of each plate). The four plates corresponding to each RoK assay were predispensed for the same mother plate. […] Cultures were then fixed and stained with 50 μL per well of a PBS solution containing 4% formaldehyde and 2 μM DRAQ5 DNA dye (BioStatus, UK). Then plates were read in a PerkinElmer Opera Phenix using a 20x objective, 3 fields per well. DRAQ5 signal was detected using 640 nm excitation laser and a 690/50 nm emission detection filter. Automated image analysis was performed with a script developed on Acapella High Content Imaging and Analysis Software (PerkinElmer). Two outputs were provided for each sample well: (1) number of host cells nuclei to determine drug-related cytotoxicity (aka H9c2) and (2) number of amastigotes per cell as infection level measurement (aka AM/CELL). Each output is plotted as a time course for each compound at every concentration. This assay was adapted from Alonso-Padilla et al. and Peña et al..
To identify and classify the different compounds, the number of amastigotes per cell (AM/CELL) raw data obtained in rate of kill assay are normalised using the average of C1 (infected cells) at time 4 hours as 0% effect and the average of C2 (non-infected cells) for each time as 100% effect, according to the following Eq 1: %CIDALRESPONSE=100*[Avg_C14h-RawData]/[Avg_C14h-Avg_C2] (1)
• ME (Maximum Effect) is the maximum percentage of parasite burden reduction reached by any compound concentration. Compounds that decrease the initial parasite load will show a positive value of ME, whereas compounds that allow the progression of infection will render a negative ME value. […] It is calculated for the MCC50 (t50%_MCC50) and for the maximum concentration (t50%_Cmax). […] The value of this parameter is not either interpolated or extrapolated, and it refers to the first experimental time-course point at which a 50% of effect is reached or exceeded. • tlag defines the time elapsed for one particular concentration to reduce parasite burden between two consecutive points at any moment of the time course. It is calculated for the MCC50 (tlag_MCC50) and for the maximum concentration (tlag_Cmax). The value of this parameter is not either interpolated or extrapolated, and it refers to the first experimental time-course point of a positive slope in the normalised plot (i.e. %Cidal_Response). • Cmin_Tox (Minimal CytoToxic Concentration) is the lowest compound concentration that is reducing the number of host mammalian cells below 50% of initial cell density. Cytotoxic compounds may mislead a bona fide antiparasitic action.

| SMILES | Trypomastigotes pIC50 48 hours [1] | Trypomastigotes pIC50 72 hours [1] | CYP51 pIC50 (TcCYP51) | ME_24h ([2]; figure 5) | ME_48h ([2]; figure 5) | ME_72h ([2]; figure 5) | MCCE ([2]; RoK curve descriptor) [µM] | AM/CELL NORM ([2]; Time 4, sheet figure 4 A) | AM/CELL NORM ([2]; Time 24, sheet figure 4 A) | AM/CELL NORM ([2]; Time 48, sheet figure 4 A) | tlag_Cmax [2] [h] | t50pct_Cmax ([2]; figure 5) | tlag_Cmax ([2]; figure 5) | t50pct_MCC50 ([2]; at MCC50, figure 5) | tlag_MCC50 ([2]; at MCC50, figure 5) | MCCE ([2]; figure 5) | ME_24h (%) [2] [%] | ME_48h (%) [2] [%] | ME_72h (%) [2] [%] | ME 24h (maximum effect at 24 hours, intracellular amastigotes) [2] [%] | also measured |
| --- | --- | --- | --- | --- | --- | --- | --- | --- | --- | --- | --- | --- | --- | --- | --- | --- | --- | --- | --- | --- | --- |
| c1ccc2c(CCOc3nccnc3-c3ccncc3)c[nH]c2c1 [TCMDC-143562] | 4.4 | 4.5 | 7.2 | -24.9705 | 30.5632 | 12.8696 | 0.2 | -8.107 | -35.3498 | 30.5632 | 24.0 | 72 | 24 | 72 | 72 | 0.2058 | -25.0 | 30.6 | 12.9 | -24.9705 | AM/CELL NORM ([2]; Time 72, sheet figure 4 A): -2.217; MCC50 ([2]; figure 5): 50 µM |
| CC(C)c1cc(C(=O)N2CCCC(c3cc4ncccc4[nH]3)C2)on1 (stereo not shown) [TCMDC-143439] | 5.3 | 5.3 | 4.3 | 43.352 | 76.8723 | 68.3635 | 1.0 | 3.622 | 43.352 | 76.8723 | 4.0 | 48 | 4 | 48 | 4 | 1.852 | 63.1 | 82.0 | 79.3 | 82.7741 | 72 pIC50 (trypomastigotes, raw data of Fig 1D) [1]: 5.3; 48 pIC50 ([1]; figure 1A): 5.3; 72 pIC50 ([1]; figure 1A): 5.3; 72 pIC50 ([1]; figure 1B): 5.3; MCC50 ([2]; RoK curve descriptor): 16.7 µM; AM/CELL NORM ([2]; Time 72, sheet figure 4 A): 68.3635; t50%_Cmax [2]: 48.0 h; t50%_MCC50 ([2]; at MCC50): 60.0 h; tlag_MCC50 ([2]; at MCC50): 14.0 h; MCC50 ([2]; figure 5, in µM): 16.6667 |
| O=C(N1CCc2ccccc2CC1)C1(C(=O)N2CCC(n3c(=O)[nH]c4ncccc43)CC2)CC1.O=C(O)C(F)(F)F [TCMDC-143381] | < 4.3 | < 4.3 | 6.5 | -241.612 | -106.513 | 38.7809 | 1.9 | 8.613 | -274.305 | -155.332 | 24.0 | 72 | 24 | 72 | 72 | 1.852 | -241.6 | -106.5 | 38.8 | -241.612 | 72 pIC50 (trypomastigotes, raw data of Fig 1D) [1]: < 4.3; 48 pIC50 ([1]; figure 1A): < 4.3; 72 pIC50 ([1]; figure 1A): < 4.3; 72 pIC50 ([1]; figure 1B): < 4.3; AM/CELL NORM ([2]; Time 72, sheet figure 4 A): 34.067; MCC50 ([2]; figure 5): 50 µM |
| CCOc1ccc(NC(=O)C=Cc2ccc(CC)o2)cc1 [TCMDC-143160] | 5.4 | 5 | < 4 | -214.627 | -667.694 | -988.393 | 16.7 |  |  |  | 72.0 | 72 | 72 | 72 | 72 | 16.6667 | -214.6 | -667.7 | -988.4 | 0.6973 | AM/CELL NORM ([2]; Time 4, figure 4 A): 1.332; AM/CELL NORM ([2]; Time 24, figure 4 A): -214.627; AM/CELL NORM ([2]; Time 48, figure 4 A): -667.694; AM/CELL NORM ([2]; Time 72, figure 4 A): -988.393; MCC50 ([2]; figure 5): 50 µM |
| Cc1nnnn1-c1cccc(C(=O)N2CCC[C@@]3(C)c4ncncc4CCC23)c1 (stereo partly shown) [TCMDC-143148] | < 4.3 | < 4.3 | 4.6 | -108.08 | -0.7839 | 73.626 | 0.6 | 4.786 | -133.046 | -35.529 | 24.0 | 72 | 24 | 72 | 24 | 0.6173 | -108.1 | -0.8 | 73.6 | -108.08 | 72 pIC50 (trypomastigotes, raw data of Fig 1D) [1]: < 4.3; 48 pIC50 ([1]; figure 1A): < 4.3; 72 pIC50 ([1]; figure 1A): < 4.3; 72 pIC50 ([1]; figure 1B): < 4.3; MCC50 ([2]; RoK curve descriptor): 1.9 µM; AM/CELL NORM ([2]; Time 72, sheet figure 4 A): 70.8755; t50%_Cmax [2]: 72.0 h; t50%_MCC50 ([2]; at MCC50): 72.0 h; tlag_MCC50 ([2]; at MCC50): 24.0 h; MCC50 ([2]; figure 5, in µM): 1.852 |
